The values below come from patent US9695160B2, “Piperazine derivatives for treating disorders” (THE UNIVERSITY OF NOTTINGHAM, priority 2014, dated 2017).

Entries after “also recorded” stand apart in the source; their conditions may differ. Like-named read-outs stand apart in the source and are kept apart here.

Series [1] has as its target T1, SRPK1 (Homo sapiens (Human), UniProt Q96SB4). As to the kind of experiment: In vitro kinase assay (Kinase-Glo), SRPK1 inhibition. The format is biochemical. Conditions: Table 2, SRPK1 inhibition assay. As to the method:
Candidate compounds were serially diluted from 10 μM-0.5 nM and added to the reaction mixture, wells with omitted SRPK1 kinase and omitted compounds were also added as controls. All wells contained one percent DMSO. One micromolar ATP was added, wells minus ATP were used as background controls. The plate was then incubated at 30° C. for 10 minutes. An equal volume of Kinase-Glo (Promega, 25 μl) was added to each well and the plate read for luminescence using an Fluostar Optima (BMG Labtech).

Series [2] can be described thus: Solubility in water of salt forms. The conditions noted are these: salt forms versus free compounds.
The nature of series [3]: Scleral permeability, modified Ussing chamber, rabbit eye tissue. Conditions: rabbit sclera; for detection in the vitreous: 24 hours.
Description: (§1) Scleral permeability was measured using a modified Ussing chamber assembly in isotonic assay buffer (pH 7.4). Rabbit or porcine excised eye tissues were mounted in the chambers such that the episcleral side faced the donor chamber and the retinal side faced the receiver chamber. The chambers were filled with equal volumes of assay buffer, with (donor side) or without (receiver side) 1 μg/ml compound. After 4 or 24 hours tissue was removed from the chamber and the receiver side (“vitreous”) sampled. Tissue was dissected into sclera, choroid/RPE, and retina and homogenised.
(§2) After 0, 4 or 24 hours, the fluid from the bottom chamber (vitreous) and the retinal tissue was isolated and compounds purified by acetonitrile extraction and HPLC.
The test system of series [4] is SRSF1 localisation. As to the kind of experiment: SRSF1 nuclear localisation by immunofluorescence in MDA-MB231 cells. The format is cell-based.
The subject of series [5] is SRSF1 localisation. As to the kind of experiment: SRSF1 nuclear localisation by immunofluorescence in PC3 cells. Format: cell-based.
Another series can be described thus: in vitro. Conditions: human.
In series [6] the test system is VEGF165b. Put plainly: VEGF165b expression in RPE cells. The format is cell-based.
Series [7] can be described thus: Scleral permeability, modified Ussing chamber, porcine eye tissue. The format is in vitro ADME. Conditions: porcine eyes.
Description: as §1, §2
Series [8] has as its system choroidal neovascularisation. Conditions: mouse models of CNV, previously shown; cited from earlier work.
Series [9] deals with human ether a go-go related gene (hERG) K+ channel (Homo sapiens (Human), UniProt Q12809). Conditions: previously described (Gammons et al., 2013); cited from earlier work.
Series [10] is classed as cell-based. An excerpt: To test whether compounds of Formula (I) are safe to administer to patients we began a basic safety test of these compounds in vitro.
Series [11] deals with VEGF165b. Conditions: cited from earlier work.
The target of series [12] is T1, SRPK1. Conditions: read-out: IC50 of SRPK1 inhibition; previously shown; cited from earlier work.
The conditions of series [13]: monthly 0.5 mg, at one year; cited from earlier work.

T1 sequence (Q96SB4 whole entry): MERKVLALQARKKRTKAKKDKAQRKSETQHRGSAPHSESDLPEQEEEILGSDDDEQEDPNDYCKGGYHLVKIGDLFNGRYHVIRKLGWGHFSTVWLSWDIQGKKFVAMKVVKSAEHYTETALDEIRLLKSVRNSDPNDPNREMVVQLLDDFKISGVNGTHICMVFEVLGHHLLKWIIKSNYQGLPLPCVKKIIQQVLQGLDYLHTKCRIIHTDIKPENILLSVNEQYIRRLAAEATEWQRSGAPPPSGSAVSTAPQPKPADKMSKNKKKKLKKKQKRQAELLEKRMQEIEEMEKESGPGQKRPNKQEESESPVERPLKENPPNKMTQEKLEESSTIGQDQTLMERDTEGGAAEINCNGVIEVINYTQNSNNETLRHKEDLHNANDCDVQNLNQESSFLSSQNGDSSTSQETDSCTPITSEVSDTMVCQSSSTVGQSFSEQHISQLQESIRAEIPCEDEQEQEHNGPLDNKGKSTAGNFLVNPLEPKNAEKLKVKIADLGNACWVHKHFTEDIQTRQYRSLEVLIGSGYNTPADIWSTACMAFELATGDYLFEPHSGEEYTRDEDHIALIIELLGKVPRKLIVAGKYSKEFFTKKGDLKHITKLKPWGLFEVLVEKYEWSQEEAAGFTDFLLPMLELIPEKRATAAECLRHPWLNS
Sequence of human ether a go-go related gene (hERG) K+ channel (Q12809 whole entry): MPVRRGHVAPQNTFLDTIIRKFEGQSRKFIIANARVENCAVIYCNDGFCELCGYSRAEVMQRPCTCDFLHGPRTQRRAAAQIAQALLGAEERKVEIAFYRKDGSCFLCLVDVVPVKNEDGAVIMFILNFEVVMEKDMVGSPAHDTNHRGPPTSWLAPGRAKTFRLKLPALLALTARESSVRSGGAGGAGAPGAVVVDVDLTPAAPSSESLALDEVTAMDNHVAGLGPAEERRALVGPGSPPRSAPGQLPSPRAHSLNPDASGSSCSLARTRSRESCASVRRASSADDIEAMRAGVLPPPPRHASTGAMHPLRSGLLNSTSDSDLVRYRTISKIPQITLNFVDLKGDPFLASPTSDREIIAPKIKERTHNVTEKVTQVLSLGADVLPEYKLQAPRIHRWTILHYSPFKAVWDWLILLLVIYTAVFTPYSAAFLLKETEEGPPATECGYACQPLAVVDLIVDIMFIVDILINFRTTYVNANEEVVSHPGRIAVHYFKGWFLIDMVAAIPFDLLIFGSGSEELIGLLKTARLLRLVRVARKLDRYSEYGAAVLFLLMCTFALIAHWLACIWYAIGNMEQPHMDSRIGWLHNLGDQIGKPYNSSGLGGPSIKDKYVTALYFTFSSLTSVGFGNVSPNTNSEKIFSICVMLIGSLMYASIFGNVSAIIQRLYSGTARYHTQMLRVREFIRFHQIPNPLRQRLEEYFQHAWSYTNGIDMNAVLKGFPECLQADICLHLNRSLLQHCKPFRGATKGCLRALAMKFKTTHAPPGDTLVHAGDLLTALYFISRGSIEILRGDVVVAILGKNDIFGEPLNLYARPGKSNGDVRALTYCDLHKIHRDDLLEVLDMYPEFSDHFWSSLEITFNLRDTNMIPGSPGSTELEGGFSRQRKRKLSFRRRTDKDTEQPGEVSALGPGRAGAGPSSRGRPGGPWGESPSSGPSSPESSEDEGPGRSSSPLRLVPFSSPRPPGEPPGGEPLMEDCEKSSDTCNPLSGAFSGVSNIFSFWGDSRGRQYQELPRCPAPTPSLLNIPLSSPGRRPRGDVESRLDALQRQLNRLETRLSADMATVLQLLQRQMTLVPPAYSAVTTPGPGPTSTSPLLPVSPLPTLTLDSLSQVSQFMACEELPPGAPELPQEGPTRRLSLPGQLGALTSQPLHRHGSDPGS

As usually defined, the IC50 is the midpoint of a concentration-inhibition curve. Regarding `CSc1nccc(CN2CCN(c3ccc(C(F)(F)F)cc3NC(=O)c3ccc(C)o3)CC2)n1` [Compound 31], the IC50 against SRPK1 [1] came out at 0.0019 µM. `O=C(Nc1cc(C(F)(F)F)ccc1N1CCN(Cc2ccccn2)CC1)c1nc(-c2ccccc2)no1` [Compound 34] registered an IC50 against SRPK1 [1] of 5.31 µM. In the case of `O=C(Nc1cc(C(F)(F)F)ccc1N1CCN(Cc2cccnc2)CC1)c1ccc(-c2ccncc2)o1` [Compound 13], in series [2], the solubility in water entry is “more freely soluble in water”.

A word on the half-life: it is the time needed for the level to fall by half in the phase considered. A low value points to fast loss. For the molecule `O=C(Nc1cc(C(F)(F)F)ccc1N1CCN(Cc2ccccn2)CC1)c1ccc(-c2ccncc2)o1` [Compound 12], the “detection in the vitreous” value in [3] was “more SPHINX31 than pazopanib”. The SRSF1 cellular localisation result with SRSF1 localisation [4] and with SRSF1 localisation [5] was “inhibited cellular localisation” throughout. The same molecule showed a half-life in “in vitro” (microsomes) of 1.02 h. Further, the “expression of anti-angiogenic VEGF165b” value in the series on VEGF165b [6] was “dose dependent increase in VEGF165b”. Further, the solubility in water result in series [2] is listed as “more freely soluble in water”. `O=C(Nc1cc(C(F)(F)F)ccc1N1CCN(Cc2ccccc2)CC1)c1ccc(-c2cccnc2)o1` [Compound 21] gave an IC50 against SRPK1 [1] of 0.0046 µM. Also, the half-life in the series “in vitro” (liver microsomes) was found to be 1.04 h.

On to `Cc1cnc(C(=O)Nc2cc(C(F)(F)F)ccc2N2CCN(Cc3ccccn3)CC2)o1` [Compound 27], for which the IC50 against SRPK1 [1] was 10 µM. The molecule `Cc1nnc(C(=O)Nc2cc(C(F)(F)F)ccc2N2CCN(Cc3ccccn3)CC2)o1` [Compound 28] gave an IC50 at SRPK1 [1] of 10 µM. Molecule `Cc1ccc(C(=O)Nc2cc(C(F)(F)F)ccc2N2CCN(Cc3ccccc3)CC2)o1` [Compound 20] returned an IC50 on SRPK1 [1] of 0.0044 µM. Besides, the half-life in the series “in vitro” (liver microsomes) is 0.283 h. As to `O=C(Nc1cc(C(F)(F)F)ccc1N1CCN(Cc2ccncc2)CC1)c1ccc(-c2ccncc2)o1` [Compound 14], the solubility in water entry in [2] was “more freely soluble in water”. In the case of `O=C(Nc1cc(C(F)(F)F)ccc1N1CCN(Cc2ccccc2)CC1)c1ccco1` [Compound 19], at SRPK1 [1], the IC50 was found to be 0.0141 µM.

In the case of `CN1CCN(c2ccc(C(F)(F)F)cc2NC(=O)c2nc(-c3ccccc3)c[nH]2)CC1` [Compound 41], on SRPK1 [1], the half-inhibitory concentration (IC50) was 0.493 µM. As for `Cc1ccc(Nc2nccc(N(C)c3ccc4c(C)n(C)nc4c3)n2)cc1S(N)(=O)=O` [pazopanib], in series [3] (4 hrs), the “detection in retina and vitreous” value was “could not”. Also, the “detection in the vitreous” value in series [3] is recorded as “detected”. In series [7], the “accumulation in sclera and RPE/Choroid layer” value was “accumulated in the sclera and in the RPE/Choroid layer”; the “penetration into retina and vitreous” value is on record as “did not penetrate the retina”. As to `Cc1ccc(C(=O)Nc2cc(C(F)(F)F)ccc2N2CCOCC2)o1` [SPHINX], the “eye drop concentration of maximum anti-angiogenic effect” value in series [8] is 10 µg/mL. In series [9], the hERG inhibition result was “did not inhibit hERG; also recorded: do not inhibit hERG”. `CN1CCN(c2ccc(C(F)(F)F)cc2NC(=O)c2cccs2)CC1` [Compound 40]: the midpoint of inhibition on SRPK1 [1], the IC50, lay at 4.69 µM.

As to `O=C(Nc1cc(C(F)(F)F)ccc1N1CCN(Cc2cnccn2)CC1)c1ccco1` [Compound 43], inhibition on SRPK1 [1] was half-maximal at 0.183 µM (IC50). With `CN(C)CCN1CCN(c2ccc(C(F)(F)F)cc2NC(=O)c2ccc(-c3ccncc3)o2)CC1` [SPHINX7], the “doses at which toxic” value in series [10] is recorded as “greater than 10 μM”.

For the molecule “bevicizumab: an anti-VEGF antibody from which Lucentis was derived”, the “binding of VEGF165b versus VEGF165” value in the series with VEGF165b [11] is recorded as “equal potency”.

As to `O=C(Nc1cc(C(F)(F)F)ccc1N1CCCCC1)c1ccncc1` [SRPIN340], the IC50 on SRPK1 [12] was 1 µM. For the same molecule, in series [8], the “eye drop concentration of maximum anti-angiogenic effect” value is 10 µg/mL. For the same molecule, in [9], the hERG inhibition entry was “do not inhibit hERG”.

B1: Lucentis: a novel humanized anti-VEGF antibody fragment (antibody, chains of the INN, looked up, V domains shown)
VH: EVQLVESGGGLVQPGGSLRLSCAASGYDFTHYGMNWVRQAPGKGLEWVGWINTYTGEPTYAADFKRRFTFSLDTSKSTAYLQMNSLRAEDTAVYYCAKYPYYYGTSHWYFDVWGQGTLVTVSS
VL: DIQLTQSPSSLSASVGDRVTITCSASQDISNYLNWYQQKPGKAPKVLIYFTSSLHSGVPSRFSGSGSGTDFTLTISSLQPEDFATYYCQQYSTVPWTFGQGTKVEIK
modifications: Fab
notes: a novel humanized anti-VEGF antibody fragment
With B1, in series [13], the “patients who maintained visual acuity (loss of <15 letters)” value is listed as “approximately 95%” and the “patients with improved vision (gain of ≧15 letters)” value was at most 40%.
